These results are taken from patent publication US7332617B2, “Process for the preparation of docetaxel trihydrate” (Shanghai Desano Chemical Pharmaceutical Co., Ltd., priority 2003, dated 2008).

Series [1] can be described thus: stability test at 40° C., relative humidity 75%, 12 months. As to conditions: relative humidity of 75%. Type of series: physicochemical. The protocol:
The experiment conditions for testing the stability are: under temperature of 40° C., at relative humidity of 75%, 12 months. Within this period, the trihydrate compound remain no change.

The conditions of series [2]: according to Chinese patent 95193984.X; cited from earlier work.
Series [3] in a line: exposure in light (purity). As to conditions: exposed in light for 10 hours. In kind it is physicochemical. An excerpt:
It is sensitive to light in some way. Shortening of the filtration time decreased the exposure time, thus the reduction of purity was avoided.

Series [4] is described as follows: stability in high temperature. Type of series: physicochemical. The protocol: 2. Lower operation temperature (below 40° C.). As Docetaxel's stability is bad in high temperature, this will help to avoid any purity drop of Docetaxel in purification process.
In series [5] the test system is transferring breast cancer. The following applies: cited from earlier work.

On to `CC(=O)O[C@@]12CO[C@@H]1C[C@H](O)[C@@]1(C)C(=O)[C@H](O)C3=C(C)[C@@H](OC(=O)[C@H](O)[C@@H](NC(=O)OC(C)(C)C)c4ccccc4)C[C@@](O)([C@@H](OC(=O)c4ccccc4)[C@H]21)C3(C)C` [Docetaxel trihydrate, (2′R,3′S)-N-carboxy-3-phenylisoserine, N-tert-butyl ester, 13-ester with 5β,20-epoxy-1β,2α,4α,7β,10β,13α-hexahydroxytax-11-en-9-one 4-acetate-2-benzoate, trihydrate], for which the stability entry in series [1] is listed as “no change”. The “stability compared with anhydrous compound” value in series [2] was “more stable than its anhydrous compound”.
For `CC(=O)O[C@@]12CO[C@@H]1C[C@H](O)[C@@]1(C)C(=O)[C@H](O)C3=C(C)[C@@H](OC(=O)[C@H](O)[C@@H](NC(=O)OC(C)(C)C)c4ccccc4)C[C@@](O)([C@@H](OC(=O)c4ccccc4)[C@H]21)C3(C)C` [Docetaxel], the “purity on exposure in light” value in series [3] is listed as “purity dropped”. Besides, the “stability in high temperature” value in series [4] was “bad”. Also, the “CR (Complete Resultful)” value in series [5] (one research report) was 4%. Besides, in series [5] (phase II clinical trial, patients who have received chemotherapy, generally 100 mgs/m^2, infusion, once per 3 weeks), the “total chemotherapy efficiency of single Docetaxel” value is recorded as 47%.
